Where “and” joins values, the source holds several entries; their conditions need not be identical. Equal values may be shown once. Read-outs that look alike come from different tables or passages of the source.
How the values were obtained:
AR = target: T1, AR (Homo sapiens, UniProt P10275); test: AR-mediated gene expression, PSA-luciferase reporter in stable HeLa-AR cells; type: cell-based; conditions: for IC50: 24 h
T1 construct: expressed in transfected cells; host or cells: HeLa (HeLa-AR / HeLaAR)
T1 sequence (P10275 1-920): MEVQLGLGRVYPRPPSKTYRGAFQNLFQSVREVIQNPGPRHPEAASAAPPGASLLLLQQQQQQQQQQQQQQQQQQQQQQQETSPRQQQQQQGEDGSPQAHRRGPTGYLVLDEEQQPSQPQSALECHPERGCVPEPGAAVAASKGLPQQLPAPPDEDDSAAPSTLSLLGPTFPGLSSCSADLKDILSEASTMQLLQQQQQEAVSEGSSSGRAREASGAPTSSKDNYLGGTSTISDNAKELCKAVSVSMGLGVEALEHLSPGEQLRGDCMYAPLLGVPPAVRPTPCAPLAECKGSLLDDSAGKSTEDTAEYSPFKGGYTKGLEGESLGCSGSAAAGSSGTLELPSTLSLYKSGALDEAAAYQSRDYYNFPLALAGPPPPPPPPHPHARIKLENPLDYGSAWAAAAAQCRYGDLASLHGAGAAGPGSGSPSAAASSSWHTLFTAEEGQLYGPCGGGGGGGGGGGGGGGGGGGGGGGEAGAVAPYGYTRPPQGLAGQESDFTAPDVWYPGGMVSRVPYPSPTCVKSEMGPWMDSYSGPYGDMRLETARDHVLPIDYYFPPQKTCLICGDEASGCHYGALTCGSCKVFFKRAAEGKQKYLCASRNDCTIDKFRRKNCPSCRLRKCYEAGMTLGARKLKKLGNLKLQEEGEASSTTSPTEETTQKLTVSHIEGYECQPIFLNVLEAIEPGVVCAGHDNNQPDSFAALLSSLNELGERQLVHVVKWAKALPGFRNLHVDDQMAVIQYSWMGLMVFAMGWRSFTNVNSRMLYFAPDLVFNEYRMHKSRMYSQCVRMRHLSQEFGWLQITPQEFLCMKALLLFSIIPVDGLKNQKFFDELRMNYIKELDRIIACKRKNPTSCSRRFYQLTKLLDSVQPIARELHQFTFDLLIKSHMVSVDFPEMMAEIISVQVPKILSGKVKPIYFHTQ
Description: FIG. 9. Effect of some Theophylline-related compounds on AR-mediated gene expression in stable HeLa-AR cells. Assays were performed as described for ER in the legend to FIG. 4 and PR/GR in FIG. 5. The cells were incubated with 80 pM DHT and the indicated concentration of each small molecule. Luciferase activity was measured after 24 hours. The data represent the mean±SEM for 3 separate experiments at each concentration.
Reporter Gene Assays. TPSF was identified by reporter gene assays comparing the ability of ˜200 compounds structurally related to TPBM (see reference 19) to inhibit transcription of a stably transfected (ERE)3-luciferase reporter gene in T47D-KBluc breast cancer cells (20). AR was assayed in stably transfected HeLa cells and GR was assayed in stably transfected T47D cells maintained as described above. Four days before each experiment the cells were switched to medium containing CD-treated serum as described above. The HeLaAR cells were plated at 100,000 cells/well and the T47D/A1-2 and T47D-KBluc cells were plated at 200,000 cells/well in 1 ml of their respective media in 24-well plates. After 24 hours the indicated concentrations of E2, dihydrotestosterone (DHT) or dexamethasone (Dex) and DMSO vehicle, with or without TPSF, were added to each well. After 24 hours, the cells were washed once in phosphate buffered saline and lysed using 100 μl of 1× Passive Lysis Buffer (Promega, Madison Wis.). Luciferase activity was determined using BrightGlo firefly luciferase reagent from Promega (Madison, Wis.).

PR = target: T2, PR (Homo sapiens, UniProt P06401); test: PR transactivation, MMTV-luciferase reporter in T47D cells; type: cell-based
T2 construct: endogenous in cells; host or cells: T47D (stably transfected with GR and MMTV-luciferase)
T2 sequence (P06401 1-933): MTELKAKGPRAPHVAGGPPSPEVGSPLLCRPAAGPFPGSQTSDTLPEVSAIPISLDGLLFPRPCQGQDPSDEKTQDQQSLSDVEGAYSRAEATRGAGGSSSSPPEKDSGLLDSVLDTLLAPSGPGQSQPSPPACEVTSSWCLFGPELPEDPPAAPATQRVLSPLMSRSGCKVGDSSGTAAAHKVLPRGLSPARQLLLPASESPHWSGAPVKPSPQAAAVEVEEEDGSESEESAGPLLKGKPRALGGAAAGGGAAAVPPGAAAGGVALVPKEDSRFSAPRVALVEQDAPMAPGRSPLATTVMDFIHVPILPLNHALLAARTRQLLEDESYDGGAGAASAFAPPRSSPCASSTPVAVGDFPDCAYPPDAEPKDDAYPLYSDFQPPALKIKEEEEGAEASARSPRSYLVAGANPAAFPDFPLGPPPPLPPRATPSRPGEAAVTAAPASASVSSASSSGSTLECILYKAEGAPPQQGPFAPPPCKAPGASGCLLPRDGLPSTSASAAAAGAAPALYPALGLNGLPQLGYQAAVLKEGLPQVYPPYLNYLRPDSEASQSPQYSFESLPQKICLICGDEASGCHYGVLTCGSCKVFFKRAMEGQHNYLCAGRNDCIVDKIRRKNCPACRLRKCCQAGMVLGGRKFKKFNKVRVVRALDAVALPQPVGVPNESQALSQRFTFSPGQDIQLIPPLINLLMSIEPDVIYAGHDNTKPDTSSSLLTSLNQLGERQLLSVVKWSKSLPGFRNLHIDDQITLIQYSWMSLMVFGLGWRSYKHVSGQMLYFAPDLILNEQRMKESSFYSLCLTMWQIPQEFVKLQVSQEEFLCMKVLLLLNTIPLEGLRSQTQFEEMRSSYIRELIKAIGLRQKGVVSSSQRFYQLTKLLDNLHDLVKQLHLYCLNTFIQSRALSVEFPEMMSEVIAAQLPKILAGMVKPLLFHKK
Description: The T47D-KBluc cells stably express an (ERE)3-luciferase reporter gene (38). Cells were maintained in phenol red-free RPMI 1640 with 2 mM L-glutamine, 1.5 g/l sodium bicarbonate, 4.5 g/l glucose, 10 mM Hepes, pH 7.5, 1 mM sodium pyruvate, 10% FBS (Atlanta Biological, Atlanta, Ga.) and antibiotics. Four days before E2 induction, the cells were switched to the above medium, with 10% 2× charcoal-dextran-treated calf serum instead of FBS. 200,000 cells/well were transferred to each well of a 24-well plate. After 24 h the indicated concentrations of the test compounds were added in DMSO and E2 was added to 20 pM. After 24 h cells were washed once in PBS, and 150 μl 1× Passive Lysis Buffer (Promega, Madison Wis.) was used to lyse the cells. Luciferase activity was determined using firefly luciferase reagents from Promega (Madison, Wis.). T47D cells stably transfected to express GR and a mouse mammary tumor virus luciferase reporter that responds to liganded GR and PR were maintained and assayed in medium containing 5 nM progesterone for PR assays, or 2.5 nM dexamethsaone for GR assays, essentially as described (39).

[1] = HeLa-AR cells, 80 pM DHT, read-out: AR-IC50

Row | SMILES | AR at 10 μM (AR) | IC50 (AR; [1]) [µM] | PR at 30 μM (PR) | effect on PR transactivation (PR; 5 nM progesterone, up to 30 μM) | IC50 (AR; stably transfected HeLa cells, 1 μM DHT, read-out: IC50 for inhibition of AR gene expression (PSA-Luc))
1 | Cn1c(=O)c2nc(CSCc3ccccc3)[nH]c2n(C)c1=O [Compound 95910, 8-Benzylsulfanylmethyl-1,3-dimethyl-3,7-dihydro-purine-2,6-dione] | – | – | – | did not significantly inhibit | –
2 | Cn1c(=O)c2[nH]c(C3CC4CCC3C4)nc2n(C)c1=O (centres unmarked) [Compound 101807, 8-Bicyclo[2.2.1]hept-2-yl-1,3-dimethyl-3,7-dihydro-purine-2,6-dione] | 50 | 5 | 71 | – | –
3 | Cn1c(=S)c2[nH]c(SCCCC(=O)c3ccc(F)cc3)nc2n(C)c1=O [TPSF, Butyrophenone, p-fluoro-4-(1,2,3,6,-tetrahydro-1,3-dimethyl-2-oxo-6-thionopurin-8-ylthio)] | – | – | – | – | 33 µM and 34 µM

Further lines, results first:

Row | AR at 10 μM (AR) | IC50 (AR; [1]) [µM] | PR at 30 μM (PR) | effect on PR transactivation (PR; 5 nM progesterone, up to 30 μM) | IC50 (AR; stably transfected HeLa cells, 1 μM DHT, read-out: IC50 for inhibition of AR gene expression (PSA-Luc)) | SMILES
4 | 90 | 1 | 0 | – | – | CCCSc1nc2c([nH]1)c(=O)n(C)c(=S)n2C [Compound 95869, 1,3-Dimethyl-8-propylsulfanyl-2-thioxo-1,2,3,7-tetrahydro-purin-6-one]
5 | 88 | 2.5 | 42 | – | – | Cn1c(=O)c2[nH]c(SC3CCCCC3)nc2n(C)c1=S [Compound 95899, 8-Cyclohexylsulfanyl-1,3-dimethyl-2-thioxo-1,2,3,7-tetrahydro-purin-6-one]

From patent US8871751B2, “Compositions and methods relating to nuclear hormone and steroid hormone receptors including inhibitors of estrogen receptor alpha-mediated gene expression and inhibition of breast cancer” (The Board of Trustees of the University of Illinois, priority 2008, dated 2014)
